Starred links: 1 amine or outer side, 2 acyl side, 3 side chain; linkers in the order of their positions; H or OH if unused. Non-standard residues stand in square brackets, D forms with d. Residues, ends and D or L forms follow the SMILES beside them. X4 = O=C(N(Cc1ccc(-c2ccccc2)cc1)N[*:1])[*:2]; azaTyr = O=C(N(Cc1ccc(O)cc1)N[*:1])[*:2]; X3 = O=C(N(Cc1cccc2ccccc12)N[*:1])[*:2]; azaPhe = O=C(N(Cc1ccccc1)N[*:1])[*:2]; X2 = O=C(N(CCc1ccccc1)N[*:1])[*:2]; azaLeu = CC(C)CN(N[*:1])C(=O)[*:2]; X1 = O=C(N(CC1CCCCC1)N[*:1])[*:2]

The nature of the experiment: HS-R1a radioreceptor assay: GHS-R1a radioreceptor assay using LLCPK-1 membranes overexpressing GSH-R1a and radioiodinated (1-28) rat ghrelin as tracer.
For `C[C@H](NC(=O)N(CC1CCCCC1)NC(=O)[C@@H](N)Cc1cnc[nH]1)C(=O)N[C@@H](Cc1c[nH]c2ccccc12)C(=O)N[C@H](Cc1ccccc1)C(=O)N[C@@H](CCCCN)C(N)=O` (H-H[X1]AW[dF]K-NH2), the EC50 amounted to 5.49 µM.

The molecule `C[C@H](NC(=O)N(Cc1ccccc1)NC(=O)[C@@H](N)Cc1cnc[nH]1)C(=O)N[C@@H](Cc1c[nH]c2ccccc12)C(=O)N[C@H](Cc1ccccc1)C(=O)N[C@@H](CCCCN)C(N)=O` (H-H[azaPhe]AW[dF]K-NH2) came in with an EC50 of 16.1 µM.

On to `C[C@H](NC(=O)[C@@H](Cc1c[nH]c2ccccc12)NC(=O)[C@@H](N)Cc1cnc[nH]1)C(=O)N[C@@H](Cc1ccc(O)cc1)C(=O)N[C@H](Cc1ccccc1)C(=O)N[C@@H](CCCCN)C(N)=O` (H-H[dW]AY[dF]K-NH2), for which the midpoint of the response, the EC50, lay at 0.771 µM.

As to `C[C@H](NC(=O)[C@@H](Cc1c[nH]c2ccccc12)NC(=O)[C@@H](N)Cc1cnc[nH]1)C(=O)NN(CC1CCCCC1)C(=O)N[C@H](Cc1ccccc1)C(=O)N[C@@H](CCCCN)C(N)=O` (H-H[dW]A[X1][dF]K-NH2), the response was half-maximal at 4.28 µM (EC50).

`C[C@H](NC(=O)[C@@H](Cc1c[nH]c2ccccc12)NC(=O)[C@@H](N)Cc1cnc[nH]1)C(=O)NN(CCc1ccccc1)C(=O)N[C@H](Cc1ccccc1)C(=O)N[C@@H](CCCCN)C(N)=O` (H-H[dW]A[X2][dF]K-NH2): a half-maximal response (EC50) required 3.74 µM.

As to `C[C@H](NC(=O)[C@@H](Cc1c[nH]c2ccccc12)NC(=O)[C@@H](N)Cc1cnc[nH]1)C(=O)NN(Cc1cccc2ccccc12)C(=O)N[C@H](Cc1ccccc1)C(=O)N[C@@H](CCCCN)C(N)=O` (H-H[dW]A[X3][dF]K-NH2), it took 0.723 µM to reach a half-maximal effect (EC50).

The molecule `C[C@H](NC(=O)[C@@H](Cc1c[nH]c2ccccc12)NC(=O)[C@@H](N)Cc1cnc[nH]1)C(=O)NN(Cc1ccc(-c2ccccc2)cc1)C(=O)N[C@H](Cc1ccccc1)C(=O)N[C@@H](CCCCN)C(N)=O` (H-H[dW]A[X4][dF]K-NH2) yielded an EC50 of 1.34 µM.

The molecule `CC(C)CN(NC(=O)[C@H](C)NC(=O)[C@@H](Cc1c[nH]c2ccccc12)NC(=O)[C@@H](N)Cc1cnc[nH]1)C(=O)N[C@H](Cc1ccccc1)C(=O)N[C@@H](CCCCN)C(N)=O` (H-H[dW]A[azaLeu][dF]K-NH2) gave an EC50 of 19.5 µM.

As to `C[C@H](NC(=O)[C@@H](Cc1c[nH]c2ccccc12)NC(=O)[C@@H](N)Cc1cnc[nH]1)C(=O)NN(Cc1ccccc1)C(=O)N[C@H](Cc1ccccc1)C(=O)N[C@@H](CCCCN)C(N)=O` (H-H[dW]A[azaPhe][dF]K-NH2), the midpoint of the response, the EC50, lay at 2.77 µM.

The molecule `C[C@H](NC(=O)[C@@H](Cc1c[nH]c2ccccc12)NC(=O)[C@@H](N)Cc1cnc[nH]1)C(=O)NN(Cc1ccc(O)cc1)C(=O)N[C@H](Cc1ccccc1)C(=O)N[C@@H](CCCCN)C(N)=O` (H-H[dW]A[azaTyr][dF]K-NH2) gave an EC50 of 15.7 µM.

Molecule `C[C@H](NC(=O)[C@@H](Cc1c[nH]c2ccccc12)NC(=O)[C@@H](N)Cc1cnc[nH]1)C(=O)N[C@H](Cc1ccc(O)cc1)C(=O)N[C@H](Cc1ccccc1)C(=O)N[C@@H](CCCCN)C(N)=O` (H-H[dW]A[dY][dF]K-NH2) registered an EC50 of 3.25 µM.

Turning to `CC(C)CN(NC(=O)[C@@H](Cc1c[nH]c2ccccc12)NC(=O)[C@@H](N)Cc1cnc[nH]1)C(=O)N[C@@H](Cc1c[nH]c2ccccc12)C(=O)N[C@H](Cc1ccccc1)C(=O)N[C@@H](CCCCN)C(N)=O` (H-H[dW][azaLeu]W[dF]K-NH2), the 50% effective concentration (EC50) amounted to 1.2 µM.

For the origin of these results see ChEMBL document CHEMBL5725517, “Azapeptides as CD36 binding compounds” (2017).
